Experimental data published in PubChem BioAssay AID2060607 (Molecular Pharmacology Branch, DTP, NCI, 2025).

System: 876862-298-R-J1-PDC complex spheroids, viability % test/control
Test: Anticancer human tumor 876862-298-R-J1-PDC patient-derived endometrial carcinoma cell line growth inhibition [CLK]
Conditions: for IC50: curve of first compound; for viability, T/C: stronger effect = lower value
In short: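 Multi-cell-type spheroids combined patient-derived tumor cells with HUVEC endothelial cells and human mesenchymal stem cells. Paired agents were dosed in half-log steps down from about clinical Cmax, or from 10 microM where Cmax was unknown.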

[1] = second compound 0.0316 µM, first compound 0.00949 µM
[2] = second compound 0.0316 µM, first compound 0.03 µM
[3] = second compound 0.0316 µM, first compound 0.0949 µM
[4] = second compound 0.0316 µM, first compound 0.3 µM
[5] = second compound 0.1 µM, first compound 0.00949 µM
[6] = second compound 0.1 µM, first compound 0.03 µM
[7] = second compound 0.1 µM, first compound 0.0949 µM
[8] = second compound 0.1 µM, first compound 0.3 µM
[9] = second compound 0.316 µM, first compound 0.00949 µM
[10] = second compound 0.316 µM, first compound 0.03 µM
[11] = second compound 0.316 µM, first compound 0.0949 µM
[12] = second compound 0.316 µM, first compound 0.3 µM
[13] = second compound 1 µM, first compound 0.00949 µM
[14] = second compound 1 µM, first compound 0.03 µM
[15] = second compound 1 µM, first compound 0.0949 µM
[16] = second compound 1 µM, first compound 0.3 µM
[17] = second compound 3.16 µM, first compound 0.00949 µM
[18] = second compound 3.16 µM, first compound 0.03 µM
[19] = second compound 3.16 µM, first compound 0.0949 µM
[20] = second compound 3.16 µM, first compound 0.3 µM
[21] = second compound 10 µM, first compound 0.00949 µM
[22] = second compound 10 µM, first compound 0.03 µM
[23] = second compound 10 µM, first compound 0.0949 µM
[24] = second compound 10 µM, first compound 0.3 µM
[25] = second compound 0.0316 µM, first compound 0.0316 µM
[26] = second compound 0.0316 µM, first compound 0.1 µM
[27] = second compound 0.0316 µM, first compound 0.316 µM
[28] = second compound 0.0316 µM, first compound 1 µM
[29] = second compound 0.0316 µM, first compound 3.16 µM
[30] = second compound 0.0316 µM, first compound 10 µM
[31] = second compound 0.1 µM, first compound 0.0316 µM
[32] = second compound 0.1 µM, first compound 0.1 µM
[33] = second compound 0.1 µM, first compound 0.316 µM
[34] = second compound 0.1 µM, first compound 1 µM
[35] = second compound 0.1 µM, first compound 3.16 µM
[36] = second compound 0.1 µM, first compound 10 µM
[37] = second compound 0.316 µM, first compound 0.0316 µM
[38] = second compound 0.316 µM, first compound 0.1 µM
[39] = second compound 0.316 µM, first compound 0.316 µM
[40] = second compound 0.316 µM, first compound 1 µM
[41] = second compound 0.316 µM, first compound 3.16 µM
[42] = second compound 0.316 µM, first compound 10 µM
[43] = second compound 1 µM, first compound 0.0316 µM
[44] = second compound 1 µM, first compound 0.1 µM
[45] = second compound 1 µM, first compound 0.316 µM
[46] = second compound 1 µM, first compound 1 µM
[47] = second compound 1 µM, first compound 3.16 µM
[48] = second compound 1 µM, first compound 10 µM
[49] = second compound 3.16 µM, first compound 0.0316 µM
[50] = second compound 3.16 µM, first compound 0.1 µM
[51] = second compound 3.16 µM, first compound 0.316 µM
[52] = second compound 3.16 µM, first compound 1 µM
[53] = second compound 3.16 µM, first compound 3.16 µM
[54] = second compound 3.16 µM, first compound 10 µM
[55] = second compound 10 µM, first compound 0.0316 µM
[56] = second compound 10 µM, first compound 0.1 µM
[57] = second compound 10 µM, first compound 0.316 µM
[58] = second compound 10 µM, first compound 1 µM
[59] = second compound 10 µM, first compound 3.16 µM
[60] = second compound 10 µM, first compound 10 µM
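Further: spheroids exposed to drugs for 7 days before readout.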
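Wherever viability, T/C is given: 100% = DMSO vehicle control wells.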

C=CC(=O)Nc1cc(Nc2nccc(-c3cn(C)c4ccccc34)n2)c(OC)cc1N(C)CCN(C)C + CN1CCN(c2cc(C(=O)Nc3cc4cc(-c5cnn(C)c5)ccc4cn3)ccn2)CC1
IC50 (second compound 0.0316 µM): 262 nM | IC50 (second compound 0.1 µM): < 0.949 nM | IC50 (second compound 0.316 µM): < 0.949 nM | IC50 (second compound 1 µM): < 0.949 nM | IC50 (second compound 3.16 µM): < 0.949 nM | IC50 (second compound 10 µM): < 0.949 nM | viability, T/C (second compound 0.0316 µM, first compound 0.000949 µM): 90% | viability, T/C (second compound 0.0316 µM, first compound 0.003 µM): 92.8% | viability, T/C [1]: 90% | viability, T/C [2]: 82.7% | viability, T/C [3]: 67.6% | viability, T/C [4]: 47.6% | viability, T/C (second compound 0.1 µM, first compound 0.000949 µM): 51.6% | viability, T/C (second compound 0.1 µM, first compound 0.003 µM): 45.1% | viability, T/C [5]: 43.7% | viability, T/C [6]: 48.8% | viability, T/C [7]: 43.3% | viability, T/C [8]: 30.7% | viability, T/C (second compound 0.316 µM, first compound 0.000949 µM): 3.41% | viability, T/C (second compound 0.316 µM, first compound 0.003 µM): 4.12% | viability, T/C [9]: 3.52% | viability, T/C [10]: 4.04% | viability, T/C [11]: 4.57% | viability, T/C [12]: 3.03% | viability, T/C (second compound 1 µM, first compound 0.000949 µM): 0.75% | viability, T/C (second compound 1 µM, first compound 0.003 µM): 1.64% | viability, T/C [13]: 2.15% | viability, T/C [14]: 1.03% | viability, T/C [15]: 0.6% | viability, T/C [16]: 2.34% | viability, T/C (second compound 3.16 µM, first compound 0.000949 µM): 1.02% | viability, T/C (second compound 3.16 µM, first compound 0.003 µM): 1.18% | viability, T/C [17]: 1.66% | viability, T/C [18]: 1.01% | viability, T/C [19]: 1.3% | viability, T/C [20]: 1.16% | viability, T/C (second compound 10 µM, first compound 0.000949 µM): 0.77% | viability, T/C (second compound 10 µM, first compound 0.003 µM): 2.03% | viability, T/C [21]: 2.52% | viability, T/C [22]: 1.87% | viability, T/C [23]: 2.21% | viability, T/C [24]: 1.88%

CC1(C)CCC(CN2CCN(c3ccc(C(=O)NS(=O)(=O)c4ccc(NCC5CCOCC5)c([N+](=O)[O-])c4)c(Oc4cnc5[nH]ccc5c4)c3)CC2)=C(c2ccc(Cl)cc2)C1 + CN1CCN(c2cc(C(=O)Nc3cc4cc(-c5cnn(C)c5)ccc4cn3)ccn2)CC1
IC50 (second compound 0.0316 µM): 5740 nM | IC50 (second compound 0.1 µM): < 31.6 nM | IC50 (second compound 0.316 µM): < 31.6 nM | IC50 (second compound 1 µM): < 31.6 nM | IC50 (second compound 3.16 µM): < 31.6 nM | IC50 (second compound 10 µM): < 31.6 nM | viability, T/C [25]: 95% | viability, T/C [26]: 89.1% | viability, T/C [27]: 90.4% | viability, T/C [28]: 89.2% | viability, T/C [29]: 94.7% | viability, T/C [30]: 11.1% | viability, T/C [31]: 52.3% | viability, T/C [32]: 47.5% | viability, T/C [33]: 45.5% | viability, T/C [34]: 46.1% | viability, T/C [35]: 43.8% | viability, T/C [36]: 3.97% | viability, T/C [37]: 2.64% | viability, T/C [38]: 2.13% | viability, T/C [39]: 2.43% | viability, T/C [40]: 2.21% | viability, T/C [41]: 1.34% | viability, T/C [42]: 0.56% | viability, T/C [43]: 0.41% | viability, T/C [44]: 1.28% | viability, T/C [45]: 0.52% | viability, T/C [46]: 0.24% | viability, T/C [47]: 0.22% | viability, T/C [48]: 0.53% | viability, T/C [49]: 0.68% | viability, T/C [50]: 0.51% | viability, T/C [51]: 0.52% | viability, T/C [52]: 0.34% | viability, T/C [53]: 0.16% | viability, T/C [54]: 0.09% | viability, T/C [55]: 0.38% | viability, T/C [56]: 0.67% | viability, T/C [57]: 0.34% | viability, T/C [58]: 0.45% | viability, T/C [59]: 0.19% | viability, T/C [60]: 1.19%

NC(=O)C(=Cn1cnc(-c2cc(C(F)(F)F)cc(C(F)(F)F)c2)n1)c1cncnc1 + CN1CCN(c2cc(C(=O)Nc3cc4cc(-c5cnn(C)c5)ccc4cn3)ccn2)CC1
IC50 (second compound 0.0316 µM): 29.4 nM | IC50 (second compound 0.1 µM): < 9.49 nM | IC50 (second compound 0.316 µM): < 9.49 nM | IC50 (second compound 1 µM): < 9.49 nM | IC50 (second compound 3.16 µM): < 9.49 nM | IC50 (second compound 10 µM): < 9.49 nM | viability, T/C [1]: 67.5% | viability, T/C [2]: 49.3% | viability, T/C [3]: 33% | viability, T/C [4]: 24.1% | viability, T/C (second compound 0.0316 µM, first compound 0.949 µM): 11.3% | viability, T/C (second compound 0.0316 µM, first compound 3 µM): 2.88% | viability, T/C [5]: 38.5% | viability, T/C [6]: 30.8% | viability, T/C [7]: 21.1% | viability, T/C [8]: 4.49% | viability, T/C (second compound 0.1 µM, first compound 0.949 µM): 0.38% | viability, T/C (second compound 0.1 µM, first compound 3 µM): 0.99% | viability, T/C [9]: 1.38% | viability, T/C [10]: 0.32% | viability, T/C [11]: 0.86% | viability, T/C [12]: 0.98% | viability, T/C (second compound 0.316 µM, first compound 0.949 µM): 0.83% | viability, T/C (second compound 0.316 µM, first compound 3 µM): 1.69% | viability, T/C [13]: 0.33% | viability, T/C [14]: 0.27% | viability, T/C [15]: 0.22% | viability, T/C [16]: 0.36% | viability, T/C (second compound 1 µM, first compound 0.949 µM): 0.45% | viability, T/C (second compound 1 µM, first compound 3 µM): 1.17% | viability, T/C [17]: 0.3% | viability, T/C [18]: 1.41% | viability, T/C [19]: 0.93% | viability, T/C [20]: 0.82% | viability, T/C (second compound 3.16 µM, first compound 0.949 µM): 1.14% | viability, T/C (second compound 3.16 µM, first compound 3 µM): 1.63% | viability, T/C [21]: 1.33% | viability, T/C [22]: 1.7% | viability, T/C [23]: 1.02% | viability, T/C [24]: 1.05% | viability, T/C (second compound 10 µM, first compound 0.949 µM): 1.22% | viability, T/C (second compound 10 µM, first compound 3 µM): 1.15%

Nc1ccccc1NC(=O)c1ccc(CNC(=O)OCc2cccnc2)cc1 + CN1CCN(c2cc(C(=O)Nc3cc4cc(-c5cnn(C)c5)ccc4cn3)ccn2)CC1
IC50 (second compound 0.0316 µM): 4010 nM | IC50 (second compound 0.1 µM): < 31.6 nM | IC50 (second compound 0.316 µM): < 31.6 nM | IC50 (second compound 1 µM): < 31.6 nM | IC50 (second compound 3.16 µM): < 31.6 nM | IC50 (second compound 10 µM): < 31.6 nM | viability, T/C [25]: 86.8% | viability, T/C [26]: 95.2% | viability, T/C [27]: 81.9% | viability, T/C [28]: 83.9% | viability, T/C [29]: 54.9% | viability, T/C [30]: 30.6% | viability, T/C [31]: 48.5% | viability, T/C [32]: 48.5% | viability, T/C [33]: 40.9% | viability, T/C [34]: 34.1% | viability, T/C [35]: 15.7% | viability, T/C [36]: 3.34% | viability, T/C [37]: 2.84% | viability, T/C [38]: 1.59% | viability, T/C [39]: 1.03% | viability, T/C [40]: 0.37% | viability, T/C [41]: 0.85% | viability, T/C [42]: 0.12% | viability, T/C [43]: 0.89% | viability, T/C [44]: 1.78% | viability, T/C [45]: 1.05% | viability, T/C [46]: 0.95% | viability, T/C [47]: 1.68% | viability, T/C [48]: 1.65% | viability, T/C [49]: 1.22% | viability, T/C [50]: 1.55% | viability, T/C [51]: 1.06% | viability, T/C [52]: 1.89% | viability, T/C [53]: 2.98% | viability, T/C [54]: 3.09% | viability, T/C [55]: 0.79% | viability, T/C [56]: 1.03% | viability, T/C [57]: 2.17% | viability, T/C [58]: 1.89% | viability, T/C [59]: 3.24% | viability, T/C [60]: 1.78%
